Results published in US20170354639A1, “DITERPENOID DERIVATIVES AND METHODS OF USE THEREOF” (Biogen MA Inc., priority 2014, published 2017).

Target: Nrf2-Keap1 (Homo sapiens, UniProt Q14145)
Assay: DiscoveRx PathHunter Nrf2-Keap1 nuclear translocation functional assay (agonist format)
Assay type: cell-based
Conditions: in duplicate, agonist mode; for EC50: 10 concentrations, 3-fold serial dilutions, 30 μM top concentration, normalized to CDDO methyl ester and vehicle
Description: DiscoveRx PathHunter® Nrf2-Keap1 Functional Assay
DiscoveRx's Nrf2-Keapl translocation assay was used to profile compounds. Primary Screening was performed in duplicate at a single concentration of 10 μM and EC50 determinations were performed in duplicate at 10 concentrations with 3-fold serial dilutions at a 30 μM top concentration or an otherwise specified top concentration.
The PathHunter® Nuclear Translocation assay detects translocation of a target protein to, or from, the nucleus. In this system, Prolink™ (PK), a small enzyme fragment, is fused to the protein of interest and Enzyme Acceptor (EA) is localized in the nucleus. Activation of the signaling pathway induces the target protein to either transit into the nucleus, thus forcing complementation of the PK and EA fragments, or out of the nucleus, hindering complementation of the fragments.
Cell handling: PathHunter Pathway cell lines were expanded from freezer stocks according to standard procedures. 5000 cells were seeded in Cell Plating Reagent 0 (containing 1% FBS) to a total volume of 20 μL into white walled, 384-well microplates and incubated for the overnight prior to testing.
Agonist format: For Agonist determination, cells were incubated with sample to induce response. Dilution of sample stocks was performed to generate 100× sample in DMSO. Intermediate dilution of sample stocks was performed to generate 5× sample in assay buffer (Cell Plating Reagent 0 containing 1% FBS). 5 μL of 5× sample was added to cells and incubated at room temperature for 6 hours. Vehicle concentration was 1%.
Signal detection: Assay signal was generated through a single addition of 25 μL (100% v/v) of PathHunter Flash Detection reagent, followed by a one hour incubation at room temperature. Microplates were read following signal generation with a PerkinElmer Envision™ instrument for chemiluminescent signal detection.
Data analysis: Compound activity was analyzed using CBIS data analysis suite (ChemInnovation, CA). For agonist mode assays, percentage activity was calculated using the following formula: % Activity=100%×(mean RLU of test sample−mean RLU of vehicle control)/(mean MAX RLU control ligand−mean RLU of vehicle control). For EC50 determination, a control agonist dose response curve was generated in the Keap 1-Nrf2 biosensor assay, data was normalized to the maximal and minimal response observed in the presence of the control ligand and vehicle respectively. CDDO methyl ester was used as a control compound. Compounds were tested in the agonist mode of the assay and data was normalized to the maximal and minimal response observed in the presence of control ligand and vehicle.

[1] = 6 h, single concentration of 10 μM, normalized to control ligand (CDDO methyl ester) and vehicle
[2] = single concentration of 10 μM, 6 hours, normalized to control ligand (CDDO methyl ester) and vehicle

Chain of Nrf2-Keap1 (Q14145 whole entry): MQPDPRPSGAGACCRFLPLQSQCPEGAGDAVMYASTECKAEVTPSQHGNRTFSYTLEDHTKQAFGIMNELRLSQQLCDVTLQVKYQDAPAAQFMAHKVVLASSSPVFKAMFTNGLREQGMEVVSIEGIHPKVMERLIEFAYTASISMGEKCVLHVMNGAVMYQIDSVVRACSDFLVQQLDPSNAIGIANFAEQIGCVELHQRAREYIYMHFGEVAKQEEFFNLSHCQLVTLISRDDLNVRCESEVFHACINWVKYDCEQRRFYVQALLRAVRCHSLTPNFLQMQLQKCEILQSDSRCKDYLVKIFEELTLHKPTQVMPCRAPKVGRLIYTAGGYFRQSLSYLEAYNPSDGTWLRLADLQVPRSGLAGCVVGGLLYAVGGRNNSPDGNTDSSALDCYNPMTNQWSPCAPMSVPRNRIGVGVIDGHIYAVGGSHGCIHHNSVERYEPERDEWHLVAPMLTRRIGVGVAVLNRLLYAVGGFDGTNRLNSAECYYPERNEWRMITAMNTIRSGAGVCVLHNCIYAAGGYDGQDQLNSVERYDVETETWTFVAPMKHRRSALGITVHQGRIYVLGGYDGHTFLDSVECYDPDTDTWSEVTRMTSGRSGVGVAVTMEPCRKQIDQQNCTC

SMILES: CC1(C)CCC[C@@]2(C)[C@H]1CCC1(CC1)[C@@H]2C/C=C1\C(=O)OCC1O (stereo partly drawn) [Example 23, (Z)-4-hydroxy-3-(2-((1′S,4a′S,8a′S)-5′,5′,8a′-trimethyloctahydro-1′H-spiro[cyclopropane-1,2′-naphthalen]-1′-yl)ethylidene)dihydrofuran-2(3H)-one]
- activation at 10 µM [1]: 51 to 100%

SMILES: CC1=CC[C@@H]2[C@@H](C)[C@@](O)(C(F)(F)F)CC[C@@]2(C)[C@@H]1C/C=C1/C(=O)OC[C@H]1O [Example 48, (S,E)-4-hydroxy-3-(2-((1R,4aR,5R,6R,8aR)-6-hydroxy-2,5,8a-trimethyl-6-(trifluoromethyl)-1,4,4a,5,6,7,8,8a-octahydronaphthalen-1-yl)ethylidene)dihydrofuran-2(3H)-one]
- EC50: > 2000 nM

SMILES: CC1(C)CCC[C@@]2(C)[C@H]1CCC1(CC1)[C@@H]2CC/C=C1/C(=O)OCC1O (stereo partly drawn) [Example 32, (E)-4-hydroxy-3-(3-((1′S,4a′S,8a′S)-5′,5′,8a′-trimethyloctahydro-1′H-spiro[cyclopropane-1,2′-naphthalen]-1′-yl)propylidene)dihydrofuran-2(3H)-one]
- activation at 10 µM [1]: 30 to 50%

SMILES: C=C1CC[C@@H]2[C@@H](C)[C@@](O)(C(F)(F)F)CC[C@@]2(C)[C@@H]1C/C=C1/C(=O)OCC1NC=O (single isomer, unassigned) [Example 43A]
- EC50: 500 to 2000 nM

SMILES: C=C1CC[C@H]2[C@@](C)(CCC3=NOC[C@]32C)[C@@H]1C/C=C1/C(=O)OC[C@H]1O [Example 11, (S,E)-3-(2-((5aS,6R,9aS,9bS)-5a,9b-dimethyl-7-methylene-1,4,5,5a,6,7,8,9,9a,9b-decahydronaphtho[2,1-c]isoxazol-6-yl)ethylidene)-4-hydroxydihydrofuran-2(3H)-one]
- EC50: 500 to 2000 nM
- activation at 10 µM [1]: > 100%

SMILES: C=C1CC[C@@H]2[C@]3(C)COS(=O)O[C@@H]3CC[C@@]2(C)[C@@H]1C/C=C1/C(=O)OC[C@@H]1NC=O (stereo partly drawn) [Example 21, N-((3R,E)-4-(2-((4aR,6aS,7R,10aS,10bR)-6a,10b-dimethyl-8-methylene-3-oxidodecahydro-1H-naphtho[2,1-d][1,3,2]dioxathiin-7-yl)ethylidene)-5-oxotetrahydrofuran-3-yl)formamide]
- EC50: > 2000 nM
- activation at 10 µM [1]: 51 to 100%

SMILES: C=C1CC[C@@H]2[C@]3(C)COS(=O)O[C@@H]3CC[C@@]2(C)[C@@H]1C/C=C1/C(=O)OCC1NC(=O)CO (single isomer, unassigned) [Example 41A]
- EC50: > 2000 nM

SMILES: C=C1CC[C@@H]2[C@]3(C)COCO[C@@H]3CC[C@@]2(C)[C@@H]1C/C=C1/C(=O)OCC1NC(=O)COC (single isomer, unassigned) [Example 46A]
- EC50: > 2000 nM

SMILES: C=C1CC[C@@H]2[C@]3(C)COCO[C@@H]3CC[C@@]2(C)[C@@H]1C/C=C1/C(=O)OCC1NC(=O)COC (single isomer, unassigned) [Example 46B]
- EC50: > 2000 nM

SMILES: C=C1CC[C@@H]2[C@@H](C)[C@H](OC)CC[C@@]2(C)[C@@H]1C/C=C1/C(=O)OC[C@H]1O [Example 16, (S,E)-4-hydroxy-3-(2-((1R,4aR,5R,6R,8aR)-6-methoxy-5,8a-dimethyl-2-methylenedecahydronaphthalen-1-yl)ethylidene)dihydrofuran-2(3H)-one]
- EC50: < 500 nM
- activation at 10 µM [1]: > 100%

SMILES: C=C1CC[C@H]2[C@@](C)(CC[C@@]3(C)OS(=O)OC[C@@]23C)[C@@H]1C/C=C1/C(=O)OCC1NC=O (stereo partly drawn) [Example 22, N-((E)-5-oxo-4-(2-((4aR,6aS,7R,10aS,10bR)-4a,6a,10b-trimethyl-8-methylene-3-oxidodecahydro-1H-naphtho[2,1-d][1,3,2]dioxathiin-7-yl)ethylidene)tetrahydrofuran-3-yl)formamide]
- EC50: 500 to 2000 nM
- activation at 10 µM [1]: 51 to 100%

SMILES: CC(=O)N[C@@H]1COC(=O)/C1=C/CC[C@H]1C2(CC[C@H]3C(C)(C)CCC[C@@]31C)CC2 [Example 35, N-((S,E)-5-oxo-4-(3-((1′S,4a′S,8a′S)-5′,5′,8a′-trimethyloctahydro-1′H-spiro[cyclopropane-1,2′-naphthalen]-1′-yl)propylidene)tetrahydrofuran-3-yl)acetamide]
- EC50: > 2000 nM
- activation at 10 µM [1]: 51 to 100%

SMILES: C=C1CC[C@@H]2[C@@H](C)[C@](O)(C(F)(F)F)CC[C@@]2(C)[C@@H]1C/C=C1/C(=O)OCC1NC=O (single isomer, unassigned) [Example 44B]
- EC50: 500 to 2000 nM

SMILES: C=C1CC[C@@H]2[C@]3(C)COS(=O)O[C@@H]3CC[C@@]2(C)[C@@H]1C/C=C1/C(=O)OCC1NC=O (stereo partly drawn) [Example 19, N-((E)-4-(2-((4aR,6aS,7R,10aS,10bR)-6a,10b-dimethyl-8-methylene-3-oxidodecahydro-1H-naphtho[2,1-d][1,3,2]dioxathiin-7-yl)ethylidene)-5-oxotetrahydrofuran-3-yl)formamide]
- activation at 10 µM [1]: 51 to 100%

SMILES: C=C1CC[C@@H]2[C@]3(C)C=NO[C@@H]3CC[C@@]2(C)[C@@H]1C/C=C1/C(=O)OC[C@H]1O [Example 12, (S,E)-3-(2-((3aR,5aS,6R,9aS,9bR)-5a,9b-dimethyl-7-methylene-3a,4,5,5a,6,7,8,9,9a,9b-decahydronaphtho[1,2-d]isoxazol-6-yl)ethylidene)-4-hydroxydihydrofuran-2(3H)-one]
- EC50: 500 to 2000 nM
- activation at 10 µM [2]: 51 to 100%

SMILES: CO[C@@H]1CC[C@@]2(C)[C@H](C/C=C3/C(=O)OC[C@H]3O)C(C)=CC[C@@H]2[C@H]1C [Example 17, (S,E)-4-hydroxy-3-(2-((1R,4aR,5R,6R,8aR)-6-methoxy-2,5,8a-trimethyl-1,4,4a,5,6,7,8,8a-octahydronaphthalen-1-yl)ethylidene)dihydrofuran-2(3H)-one]
- EC50: 500 to 2000 nM
- activation at 10 µM [1]: 51 to 100%

SMILES: CC1(C)CCC[C@@]2(C)[C@H]1CCC1(CC1)[C@@H]2C/C=C1\C(=O)OC[C@H]1NC=O [Example 25, N—((S,Z)-5-oxo-4-(2-((1′S,4a′S,8a′S)-5′,5′,8a′-trimethyloctahydro-1′H-spiro[cyclopropane-1,2′-naphthalen]-1′-yl)ethylidene)tetrahydrofuran-3-yl)formamide]
- activation at 10 µM [1]: 51 to 100%

SMILES: C=C1CC[C@H]2[C@@](C)(CC[C@@](C)(O)[C@@]2(C)CO)[C@@H]1C/C=C1/C(=O)OC[C@H]1O [Example 7, (S,E)-4-hydroxy-3-(2-((1R,4aS,5R,6R,8a5)-6-hydroxy-5-(hydroxymethyl)-5,6,8a-trimethyl-2-methylenedecahydronaphthalen-1-yl)ethylidene)dihydrofuran-2(3H)-one]
- activation at 10 µM [1]: 51 to 100%

SMILES: CC(=O)N[C@@H]1COC(=O)/C1=C/C[C@H]1C2(CC[C@H]3C(C)(C)CCC[C@@]31C)CC2 [Example 26, N—((S,E)-5-oxo-4-(2-((1′S,4a′S,8a′S)-5′,5′,8a′-trimethyloctahydro-1′H-spiro[cyclopropane-1,2′-naphthalen]-1′-yl)ethylidene)tetrahydrofuran-3-yl)acetamide]
- activation at 10 µM [1]: 30 to 50%

SMILES: C=C1CC[C@@H]2[C@@H](C)[C@H](NC)CC[C@@]2(C)[C@@H]1C/C=C1/C(=O)OC[C@H]1O [Example 15, (4S,E)-3-(2-((1R,4aR,5R,8aR)-5,8a-dimethyl-6-(methylamino)-2-methylenedecahydronaphthalen-1-yl)ethylidene)-4-hydroxydihydrofuran-2(3H)-one]
- EC50: 500 to 2000 nM
- activation at 10 µM [1]: 51 to 100%

SMILES: CC1(C)CCC[C@@]2(C)[C@H]1CCC1(CC1)[C@@H]2CC/C=C1\C(=O)OC[C@H]1NS(C)(=O)=O [Example 38, N—((S,Z)-5-oxo-4-(3-((1′S,4a′S,8a′S)-5′,5′,8a′-trimethyloctahydro-1′H-spiro[cyclopropane-1,2′-naphthalen]-1′-yl)propylidene)tetrahydrofuran-3-yl)methanesulfonamide]
- activation at 10 µM [1]: 30 to 50%

SMILES: C=C1CC[C@@H]2[C@]3(C)COCO[C@@H]3CC[C@@]2(C)[C@@H]1C/C=C1/C(=O)OCC1NC=O (single isomer, unassigned) [Example 39B]
- % Activation @ 10 μM [2]: B (B: 51 to 100%)

SMILES: C=C1CC[C@@H]2[C@@H](C)[C@](O)(C(F)(F)F)CC[C@@]2(C)[C@@H]1C/C=C1/C(=O)OCC1NC=O (single isomer, unassigned) [Example 44A]
- EC50: > 2000 nM

SMILES: C=C1CC[C@@H]2[C@@H](C)[C@@H](O)CC[C@@]2(C)[C@@H]1C/C=C1/C(=O)OC[C@H]1O [Example 1, (S,E)-4-hydroxy-3-(2-((1R,4aR,5R,6S,8aR)-6-hydroxy-5,8a-dimethyl-2-methylenedecahydronaphthalen-1-yl)ethylidene)dihydrofuran-2(3H)-one]
- EC50: 500 to 2000 nM
- activation at 10 µM [1]: 51 to 100%
